SMILES strings stand for the structures.

We go through ten molecules from ChEMBL document CHEMBL5465560, “Selectivity Literature for EUbOPEN Chemogenomic Library” (2024).

Assay [1] addresses Protein kinase C alpha type (Homo sapiens, UniProt P17252). Put plainly: Selectivity interaction (ActivX KiNativ screen (ex vivo kinase selectivity in human PBMCs)) EUB0001619a PRKCA. The conditions noted are these: PBMC, at 1 µM. The class given is cell-based.
Assay [2] concerns the target T1, Casein kinase I isoform alpha-like (Homo sapiens) (UniProt Q8N752).
T1 sequence (whole entry): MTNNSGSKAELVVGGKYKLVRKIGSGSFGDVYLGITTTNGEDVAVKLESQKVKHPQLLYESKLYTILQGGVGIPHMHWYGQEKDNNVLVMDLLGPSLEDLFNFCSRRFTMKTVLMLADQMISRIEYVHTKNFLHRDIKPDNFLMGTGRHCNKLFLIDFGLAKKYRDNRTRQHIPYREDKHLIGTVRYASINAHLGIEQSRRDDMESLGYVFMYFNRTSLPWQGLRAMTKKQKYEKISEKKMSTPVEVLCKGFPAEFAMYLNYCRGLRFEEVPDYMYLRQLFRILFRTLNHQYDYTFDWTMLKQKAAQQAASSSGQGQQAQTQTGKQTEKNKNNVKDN
Nature of the assay: Selectivity interaction (KinomeScan (DiscoverX)) EUB0001619a CSNK1A1L. The settings on record: at 1 µM.

Assay [3] concerns the target Mitogen-activated protein kinase 9 (Homo sapiens, UniProt P45984). Put plainly: Selectivity interaction (KinomeScan (DiscoverX)) EUB0000695a MAPK9. The conditions noted are these: at 100 nM.
The target of assay [4] is Ribosomal protein S6 kinase alpha-5 (Homo sapiens) (UniProt O75582). Put plainly: Selectivity interaction (KinomeScan (DiscoverX)) EUB0000695a RPS6KA5. The settings on record: at 100 nM.
Sequence of Ribosomal protein S6 kinase alpha-5 (Homo sapiens) (O75582 whole entry, looked up): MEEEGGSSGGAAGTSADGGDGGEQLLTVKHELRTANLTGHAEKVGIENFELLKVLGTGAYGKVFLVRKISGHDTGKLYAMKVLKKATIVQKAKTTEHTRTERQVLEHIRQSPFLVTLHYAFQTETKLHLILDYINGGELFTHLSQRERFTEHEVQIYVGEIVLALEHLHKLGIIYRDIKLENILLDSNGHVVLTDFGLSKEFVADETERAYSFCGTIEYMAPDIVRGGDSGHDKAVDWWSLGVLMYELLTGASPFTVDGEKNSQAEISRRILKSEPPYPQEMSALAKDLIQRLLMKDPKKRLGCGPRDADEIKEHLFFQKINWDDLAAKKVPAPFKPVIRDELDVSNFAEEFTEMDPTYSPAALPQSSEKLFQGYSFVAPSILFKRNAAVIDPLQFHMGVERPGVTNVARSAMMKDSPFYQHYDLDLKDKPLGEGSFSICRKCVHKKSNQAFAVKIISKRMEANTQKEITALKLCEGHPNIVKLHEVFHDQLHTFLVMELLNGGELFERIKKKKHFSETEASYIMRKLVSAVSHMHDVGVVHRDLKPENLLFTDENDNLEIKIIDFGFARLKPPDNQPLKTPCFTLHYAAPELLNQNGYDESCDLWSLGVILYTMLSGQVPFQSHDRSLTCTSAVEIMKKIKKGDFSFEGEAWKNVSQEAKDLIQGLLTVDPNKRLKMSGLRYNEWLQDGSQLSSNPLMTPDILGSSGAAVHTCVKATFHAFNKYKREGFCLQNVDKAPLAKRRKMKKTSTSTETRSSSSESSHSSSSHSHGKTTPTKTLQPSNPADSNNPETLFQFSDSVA
The target of assay [5] is cAMP-dependent protein kinase catalytic subunit alpha (Homo sapiens, UniProt P17612). Nature of the assay: Selectivity interaction (SelectScreen profiling (Invitrogen)) EUB0000607a PRKACA. The settings on record: at 2 µM.
Assay [6] concerns the target Calcium/calmodulin-dependent protein kinase type 1 (Homo sapiens) (UniProt Q14012). Nature of the assay: Selectivity interaction (ActivX KiNativ screen (kinase selectivity in THP-1 cell lysates)) EUB0000639a CAMK1. The assay is classed as subcellular. The conditions noted are these: lysate.
Assay [7] deals with Ribosomal protein S6 kinase alpha-1 (Homo sapiens, UniProt Q15418). Nature of the assay: Selectivity interaction (ActivX KiNativ screen (kinase selectivity in THP-1 cell lysates)) EUB0000639a RPS6KA1. The assay is classed as subcellular. The settings on record: lysate, at 0.2 µM.
Assay [8] concerns the target Tyrosine-protein kinase ABL1 (Homo sapiens, UniProt P00519). Nature of the assay: Selectivity interaction (Kinase panel (Invitrogen)) EUB0000639a ABL1. The settings on record: at 200 nM.
The target in assay [9] is T2, Muscle, skeletal receptor tyrosine-protein kinase (Homo sapiens) (UniProt O15146).
T2 sequence (whole entry): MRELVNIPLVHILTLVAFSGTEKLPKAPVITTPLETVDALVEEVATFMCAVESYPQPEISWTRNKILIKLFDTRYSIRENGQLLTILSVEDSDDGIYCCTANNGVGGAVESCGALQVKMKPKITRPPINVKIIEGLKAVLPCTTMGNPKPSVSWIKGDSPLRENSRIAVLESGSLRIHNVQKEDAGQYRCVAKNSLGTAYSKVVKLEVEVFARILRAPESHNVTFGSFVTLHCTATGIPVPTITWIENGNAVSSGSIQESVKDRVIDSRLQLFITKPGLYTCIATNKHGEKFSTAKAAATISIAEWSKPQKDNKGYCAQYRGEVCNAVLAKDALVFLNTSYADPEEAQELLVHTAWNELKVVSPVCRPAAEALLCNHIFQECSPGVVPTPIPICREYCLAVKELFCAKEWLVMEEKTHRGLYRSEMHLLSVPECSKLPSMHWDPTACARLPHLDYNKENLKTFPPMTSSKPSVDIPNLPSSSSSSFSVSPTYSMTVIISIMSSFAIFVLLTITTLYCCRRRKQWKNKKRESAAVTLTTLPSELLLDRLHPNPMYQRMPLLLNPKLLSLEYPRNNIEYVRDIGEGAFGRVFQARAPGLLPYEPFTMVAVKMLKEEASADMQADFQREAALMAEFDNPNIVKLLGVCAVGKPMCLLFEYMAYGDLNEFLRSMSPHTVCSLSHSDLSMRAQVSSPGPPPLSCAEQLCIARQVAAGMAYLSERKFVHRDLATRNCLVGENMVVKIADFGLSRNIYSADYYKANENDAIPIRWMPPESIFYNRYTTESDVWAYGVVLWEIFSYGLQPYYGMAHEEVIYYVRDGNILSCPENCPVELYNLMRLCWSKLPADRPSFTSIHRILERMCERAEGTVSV
Put plainly: Selectivity interaction (ProQinase) EUB0000171b MUSK.

Assay [10] has as its target Ribosomal protein S6 kinase alpha-5 (Homo sapiens) (UniProt O75582). Put plainly: Selectivity interaction (ProQinase) EUB0000171b RPS6KA5.
In assay [11] the target is Serine/threonine-protein kinase 32B (Homo sapiens) (UniProt Q9NY57). Nature of the assay: Selectivity interaction (Ambit KINOMEscan and KiNATiv profiling in Jurkat cells) EUB0000090b STK32B. The assay is classed as cell-based. The settings on record: at 1 µM.
In assay [12] the target is Tyrosine-protein kinase JAK1 (Homo sapiens, UniProt P23458). Put plainly: Selectivity interaction (Kinase panel (33PanQinase(R) Activity Assay)) EUB0000877a JAK1.
Sequence of Tyrosine-protein kinase JAK1 (P23458 whole entry): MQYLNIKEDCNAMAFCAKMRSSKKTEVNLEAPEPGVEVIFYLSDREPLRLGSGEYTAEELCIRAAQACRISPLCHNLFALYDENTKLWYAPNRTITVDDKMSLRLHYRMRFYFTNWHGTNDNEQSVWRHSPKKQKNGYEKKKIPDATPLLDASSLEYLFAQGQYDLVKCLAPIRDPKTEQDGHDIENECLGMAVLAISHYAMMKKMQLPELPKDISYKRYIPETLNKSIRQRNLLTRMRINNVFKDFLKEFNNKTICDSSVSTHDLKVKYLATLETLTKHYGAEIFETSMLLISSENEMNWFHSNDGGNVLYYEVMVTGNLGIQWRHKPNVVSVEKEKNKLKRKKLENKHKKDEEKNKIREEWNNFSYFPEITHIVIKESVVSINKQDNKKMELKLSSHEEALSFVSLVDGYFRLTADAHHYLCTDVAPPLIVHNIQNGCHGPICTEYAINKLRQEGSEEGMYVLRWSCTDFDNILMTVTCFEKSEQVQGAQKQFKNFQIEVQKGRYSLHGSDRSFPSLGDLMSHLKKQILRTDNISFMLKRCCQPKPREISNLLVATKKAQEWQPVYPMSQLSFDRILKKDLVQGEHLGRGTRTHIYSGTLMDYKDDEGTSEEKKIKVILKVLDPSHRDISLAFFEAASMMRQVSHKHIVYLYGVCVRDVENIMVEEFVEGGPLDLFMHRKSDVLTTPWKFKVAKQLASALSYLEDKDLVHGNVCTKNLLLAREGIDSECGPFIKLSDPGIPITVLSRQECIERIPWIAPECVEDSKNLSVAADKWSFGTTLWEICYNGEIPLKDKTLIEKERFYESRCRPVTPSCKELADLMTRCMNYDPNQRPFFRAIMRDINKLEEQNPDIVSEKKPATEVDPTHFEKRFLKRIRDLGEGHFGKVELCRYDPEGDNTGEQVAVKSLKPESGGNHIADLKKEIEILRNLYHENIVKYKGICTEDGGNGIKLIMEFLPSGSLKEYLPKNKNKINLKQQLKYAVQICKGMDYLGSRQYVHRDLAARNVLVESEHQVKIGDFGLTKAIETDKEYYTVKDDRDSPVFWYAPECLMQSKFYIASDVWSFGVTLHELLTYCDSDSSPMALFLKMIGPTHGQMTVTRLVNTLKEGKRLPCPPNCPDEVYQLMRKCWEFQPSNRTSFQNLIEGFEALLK
Assay [13] addresses Maternal embryonic leucine zipper kinase (Homo sapiens) (UniProt Q14680). Nature of the assay: Selectivity interaction (KinomeScan (DiscoverX)) EUB0000092b MELK. The conditions noted are these: at 10 µM.
For assay [14], the target named is Serine/threonine-protein kinase WNK4 (Homo sapiens) (UniProt Q96J92). Put plainly: Selectivity interaction (KinomeScan (DiscoverX)) EUB0000229b WNK4. The conditions noted are these: at 10 µM.
Assay [15] has as its target Dual specificity tyrosine-phosphorylation-regulated kinase 1B (Homo sapiens, UniProt Q9Y463). Put plainly: Selectivity interaction (KinomeScan (DiscoverX)) EUB0000229b DYRK1B. The conditions noted are these: at 10 µM.
In assay [16] the target is Wee1-like protein kinase (Homo sapiens) (UniProt P30291). Put plainly: Selectivity interaction (Kinase panel (KiNativ target engagement assay in Jurkat cells)) EUB0001635a WEE1. The settings on record: at 1 µM. The class given is cell-based.
Sequence of Wee1-like protein kinase (Homo sapiens) (P30291 whole entry, looked up): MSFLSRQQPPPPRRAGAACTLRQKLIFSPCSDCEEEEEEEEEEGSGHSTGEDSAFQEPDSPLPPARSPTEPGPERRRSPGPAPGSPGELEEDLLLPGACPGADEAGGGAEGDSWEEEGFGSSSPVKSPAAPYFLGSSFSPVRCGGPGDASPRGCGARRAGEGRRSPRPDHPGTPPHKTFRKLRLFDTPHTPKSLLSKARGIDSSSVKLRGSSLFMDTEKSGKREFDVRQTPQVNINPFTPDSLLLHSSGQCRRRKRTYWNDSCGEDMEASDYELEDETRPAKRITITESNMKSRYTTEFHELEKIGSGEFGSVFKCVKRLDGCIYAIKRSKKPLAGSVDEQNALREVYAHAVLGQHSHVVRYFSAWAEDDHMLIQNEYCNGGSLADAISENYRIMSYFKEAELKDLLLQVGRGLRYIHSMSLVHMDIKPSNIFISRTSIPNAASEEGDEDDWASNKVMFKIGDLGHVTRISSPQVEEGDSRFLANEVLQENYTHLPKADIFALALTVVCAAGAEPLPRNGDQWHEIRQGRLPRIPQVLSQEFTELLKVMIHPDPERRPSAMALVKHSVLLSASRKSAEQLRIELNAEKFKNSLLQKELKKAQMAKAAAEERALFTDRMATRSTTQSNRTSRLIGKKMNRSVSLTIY

Sequence of Calcium/calmodulin-dependent protein kinase type 1 (Homo sapiens) (Q14012 whole entry, looked up): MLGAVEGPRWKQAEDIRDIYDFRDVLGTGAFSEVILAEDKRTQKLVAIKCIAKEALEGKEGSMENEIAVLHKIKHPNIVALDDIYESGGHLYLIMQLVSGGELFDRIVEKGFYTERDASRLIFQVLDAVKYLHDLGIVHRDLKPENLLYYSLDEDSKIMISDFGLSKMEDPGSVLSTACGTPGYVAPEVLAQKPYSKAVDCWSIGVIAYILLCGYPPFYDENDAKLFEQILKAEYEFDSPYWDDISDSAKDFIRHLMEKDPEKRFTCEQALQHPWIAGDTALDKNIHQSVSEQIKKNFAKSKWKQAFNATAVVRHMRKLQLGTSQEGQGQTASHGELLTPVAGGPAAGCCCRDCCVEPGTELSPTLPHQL
Sequence of Tyrosine-protein kinase ABL1 (P00519 whole entry): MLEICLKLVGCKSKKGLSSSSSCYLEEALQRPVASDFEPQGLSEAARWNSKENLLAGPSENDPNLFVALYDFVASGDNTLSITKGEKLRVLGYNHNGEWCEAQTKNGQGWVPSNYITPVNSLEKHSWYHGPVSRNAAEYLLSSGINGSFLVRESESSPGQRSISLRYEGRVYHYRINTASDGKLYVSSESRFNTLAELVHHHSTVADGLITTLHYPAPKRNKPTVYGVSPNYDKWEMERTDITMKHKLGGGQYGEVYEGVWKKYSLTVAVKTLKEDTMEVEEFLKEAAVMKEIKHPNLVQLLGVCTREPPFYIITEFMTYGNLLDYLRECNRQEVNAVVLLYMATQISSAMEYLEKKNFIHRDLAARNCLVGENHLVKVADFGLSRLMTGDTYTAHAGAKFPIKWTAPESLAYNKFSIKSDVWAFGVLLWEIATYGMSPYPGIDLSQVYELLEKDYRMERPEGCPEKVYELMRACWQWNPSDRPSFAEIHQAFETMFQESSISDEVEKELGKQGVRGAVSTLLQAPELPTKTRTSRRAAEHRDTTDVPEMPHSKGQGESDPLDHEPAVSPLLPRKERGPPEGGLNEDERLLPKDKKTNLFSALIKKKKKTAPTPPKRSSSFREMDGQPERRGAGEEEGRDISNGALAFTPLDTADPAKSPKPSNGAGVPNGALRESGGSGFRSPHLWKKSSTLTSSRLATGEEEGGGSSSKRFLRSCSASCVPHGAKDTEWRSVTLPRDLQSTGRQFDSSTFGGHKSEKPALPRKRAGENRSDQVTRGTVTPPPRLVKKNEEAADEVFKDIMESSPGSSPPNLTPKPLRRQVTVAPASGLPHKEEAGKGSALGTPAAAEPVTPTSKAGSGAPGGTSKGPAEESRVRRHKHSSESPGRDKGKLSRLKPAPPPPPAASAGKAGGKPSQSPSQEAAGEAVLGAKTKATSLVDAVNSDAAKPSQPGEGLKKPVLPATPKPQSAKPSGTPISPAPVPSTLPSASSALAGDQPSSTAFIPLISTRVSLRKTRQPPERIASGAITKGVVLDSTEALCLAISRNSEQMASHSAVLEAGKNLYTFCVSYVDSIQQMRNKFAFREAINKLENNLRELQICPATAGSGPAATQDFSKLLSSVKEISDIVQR
Sequence of Dual specificity tyrosine-phosphorylation-regulated kinase 1B (Q9Y463 whole entry, looked up): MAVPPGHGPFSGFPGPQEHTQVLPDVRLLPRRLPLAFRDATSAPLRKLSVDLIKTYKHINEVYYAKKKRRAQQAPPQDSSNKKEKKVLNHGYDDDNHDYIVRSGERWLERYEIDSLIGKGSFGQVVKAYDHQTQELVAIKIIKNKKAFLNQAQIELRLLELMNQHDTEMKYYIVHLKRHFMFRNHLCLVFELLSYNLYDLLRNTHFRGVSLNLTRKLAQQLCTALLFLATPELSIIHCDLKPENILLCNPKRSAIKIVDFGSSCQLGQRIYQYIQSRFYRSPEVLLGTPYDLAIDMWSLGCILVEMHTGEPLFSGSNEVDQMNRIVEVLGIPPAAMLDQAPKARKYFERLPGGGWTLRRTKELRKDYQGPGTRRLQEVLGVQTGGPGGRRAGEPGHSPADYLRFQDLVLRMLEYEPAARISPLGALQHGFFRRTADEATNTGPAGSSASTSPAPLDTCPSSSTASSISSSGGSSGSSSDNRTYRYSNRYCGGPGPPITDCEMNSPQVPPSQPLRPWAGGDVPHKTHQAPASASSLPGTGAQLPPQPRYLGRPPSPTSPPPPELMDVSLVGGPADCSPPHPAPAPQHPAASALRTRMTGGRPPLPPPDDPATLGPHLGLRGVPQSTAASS

`N#Cc1cccc(-c2c[nH]c3ncnc(N4CCOCC4)c23)c1`: the % of inhibition in assay [1] amounted to 57%. In [2], the % of control is 96%.

For `Cc1cc(F)c(C(=O)Nc2cccc(-c3nncn3C(C)C)n2)cc1-n1cnc(C2CC2)c1`, the % of control in assay [3] is 78%; in assay [4] it was 100%.

Take `CNC(=O)Nc1ccc(-c2nc(N3CC4CCC(C3)O4)c3cnn(C4CCC5(CC4)OCCO5)c3n2)cc1`: the % of inhibition in assay [5] was -3%.

With `CC[C@@H]1[C@H](F)C(=O)N[C@@H]1COc1nccc2cc(C(N)=O)c(OC)cc12` [ZIMLOVISERTIB], the % of inhibition was -2.6% in assay [6] (at 0.01 µM); 9.8% in [6] (at 0.04 µM); 1.9% in [6] (at 0.2 µM); -7.1% in assay [6] (at 1 µM); -4.3% in [6] (at 5 µM); -12.2% in assay [7]. Moreover, in [8], the % of inhibition is -8%.

In the case of `C=CC(=O)Nc1cccc(C(=O)Nc2ccc(Nc3cc(-c4[nH]c(SC)nc4C)ccn3)cc2)c1`, the % of control in assay [9] (at 1 µM) was determined as 74%; in assay [9] (at 5 µM), 31%; in assay [10] (at 1 µM), 94%; in [10] (at 5 µM), 87%.

`CN(C)C/C=C/C(=O)Nc1ccc(C(=O)N2CCCC(Nc3ncc(Cl)c(-c4c[nH]c5ccccc45)n3)C2)cc1` (configuration not stated) came in with a % of control in assay [11] of 90%.

As usually defined, the IC50 is the concentration at which inhibition is half-maximal. Low values mean greater potency, high ones weaker potency. Regarding `CCC(=O)N1CC[C@H](Nc2ncnc3c2CN(c2cnc(OC)c(C(F)(F)F)c2)CC3)C1` [LENIOLISIB], in assay [12], the IC50 is > 10 µM.

Turning to `CCC(=O)N1CCN(c2ccc(-n3c(=O)ccc4cnc5ccc(-c6cnc7ccccc7c6)cc5c43)cc2C(F)(F)F)CC1`, the % of control in assay [13] was found to be 50%.

`COc1cc(N(C)c2ccnc3ccc(C(F)(F)F)cc23)cc(OC)c1OC`: the % binding in assay [14] came out at 100%; in [15] it was 77%.

On to `C=CC(=O)Nc1ccc(C(=O)Nc2[nH]nc3c2CN(C(=O)N[C@H](CN(C)C)c2ccccc2)C3(C)C)cc1`, for which the % of engagement in assay [16] is 24%.
